25 compounds from US10669272B2, “Substituted naphthyridinone compounds useful as T cell activators” (BRISTOL-MYERS SQUIBB COMPANY, priority 2018, dated 2020) can be followed below.

The term IC50 denotes the concentration at which inhibition is half-maximal. One may read the EC50 as the concentration at which the effect is half-maximal.

Experiment [1] concerns the target T1, human DGKα (Homo sapiens, UniProt P23743).
T1 construct: TVMV protease cleavage site (C); Hexa-His (C); made in house; host or cells: Sf9 insect cells (baculovirus, Bac-to-Bac)
As to the kind of experiment: DGKα LIPGLO assay (extruded liposome substrate), in vitro DGK inhibition. It counts as biochemical. The conditions noted are these: read-out: DGKa LIPGLO IC50.

Experiment [2] concerns the target T2, human DGKζ (Homo sapiens, UniProt Q13574).
T2 construct: TVMV protease cleavage site (C); Hexa-His (C); made in house; host or cells: Sf9 insect cells (baculovirus, Bac-to-Bac)
Nature of the experiment: DGKζ LIPGLO assay (extruded liposome substrate), in vitro DGK inhibition. It counts as biochemical. The conditions noted are these: read-out: DGKz LIPGLO IC50.

Experiment [3] has as its system Human venous whole blood. Nature of the experiment: Human whole blood IFN-γ assay.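 Also: blood from healthy donors exposed to compound for 1 h before stimulation with anti-CD3 and anti-CD28 at 1 µg/mL each, IFN-γ quantified in supernatant by AlphaLISA.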 It counts as cell-based. The conditions noted are these: human whole blood, read-out: INFg Whole Blood Normalized Agonist EC50.
Method: Human Whole Blood IFN-γ Assay
Human venous whole blood (22.5 μL per well), obtained from healthy donors, was pre-treated with compounds for one hour at 37° C. in a humidified 95% air/5% CO2 incubator. The blood was stimulated with 2.5 μL anti-human CD3 and anti-CD28 mAb at a final concentration of 1 μg/mL each for 24 hours at 37° C. IFN-γ in the supernatants was measured using AlphLISA kit (Cat # AL217).
Where [4] appears, read: Homo sapiens, 24 h, normalized to 3 μM reference compound with anti-CD3 plus anti-CD28 as 100% activation.
[5] abbreviates: Homo sapiens, 24 h, anti-CD3 plus anti-CD28, 24 hours, 3 μM reference compound = 100% activation.
[6] abbreviates: anti-CD3 plus anti-CD28, 24 hours, 3 μM reference compound = 100% activation.
[7] abbreviates: normalized to 3 μM reference compound with anti-CD3 plus anti-CD28 as 100% activation.

Where two headings read alike, the source gives them in different places.

T2 sequence (Q13574 with tags, fused parts or gaps isoform Q13574-4): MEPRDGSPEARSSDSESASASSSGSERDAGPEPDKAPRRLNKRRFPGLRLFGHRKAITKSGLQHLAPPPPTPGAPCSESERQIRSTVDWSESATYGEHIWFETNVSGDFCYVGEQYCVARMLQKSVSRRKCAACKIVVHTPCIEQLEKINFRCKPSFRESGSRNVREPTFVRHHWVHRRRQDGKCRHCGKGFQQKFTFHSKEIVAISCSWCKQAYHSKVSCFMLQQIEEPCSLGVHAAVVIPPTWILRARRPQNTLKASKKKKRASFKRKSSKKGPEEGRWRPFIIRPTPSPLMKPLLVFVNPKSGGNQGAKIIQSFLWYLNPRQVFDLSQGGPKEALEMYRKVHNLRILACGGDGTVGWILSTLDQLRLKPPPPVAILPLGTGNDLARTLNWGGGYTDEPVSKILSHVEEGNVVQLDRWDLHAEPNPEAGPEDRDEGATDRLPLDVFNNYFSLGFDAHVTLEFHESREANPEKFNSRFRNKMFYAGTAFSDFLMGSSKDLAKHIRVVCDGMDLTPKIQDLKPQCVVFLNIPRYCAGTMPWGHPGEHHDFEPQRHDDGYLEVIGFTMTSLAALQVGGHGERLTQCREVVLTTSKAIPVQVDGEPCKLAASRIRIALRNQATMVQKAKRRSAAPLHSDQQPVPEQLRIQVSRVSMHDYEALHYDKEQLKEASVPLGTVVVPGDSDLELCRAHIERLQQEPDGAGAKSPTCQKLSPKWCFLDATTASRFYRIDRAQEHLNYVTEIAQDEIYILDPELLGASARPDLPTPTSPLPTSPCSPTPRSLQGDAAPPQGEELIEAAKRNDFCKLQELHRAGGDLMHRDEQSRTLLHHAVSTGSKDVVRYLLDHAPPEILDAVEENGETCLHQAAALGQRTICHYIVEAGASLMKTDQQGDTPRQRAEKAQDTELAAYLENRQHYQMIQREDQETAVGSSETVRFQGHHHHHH
T1 sequence (P23743 with tags, fused parts or gaps): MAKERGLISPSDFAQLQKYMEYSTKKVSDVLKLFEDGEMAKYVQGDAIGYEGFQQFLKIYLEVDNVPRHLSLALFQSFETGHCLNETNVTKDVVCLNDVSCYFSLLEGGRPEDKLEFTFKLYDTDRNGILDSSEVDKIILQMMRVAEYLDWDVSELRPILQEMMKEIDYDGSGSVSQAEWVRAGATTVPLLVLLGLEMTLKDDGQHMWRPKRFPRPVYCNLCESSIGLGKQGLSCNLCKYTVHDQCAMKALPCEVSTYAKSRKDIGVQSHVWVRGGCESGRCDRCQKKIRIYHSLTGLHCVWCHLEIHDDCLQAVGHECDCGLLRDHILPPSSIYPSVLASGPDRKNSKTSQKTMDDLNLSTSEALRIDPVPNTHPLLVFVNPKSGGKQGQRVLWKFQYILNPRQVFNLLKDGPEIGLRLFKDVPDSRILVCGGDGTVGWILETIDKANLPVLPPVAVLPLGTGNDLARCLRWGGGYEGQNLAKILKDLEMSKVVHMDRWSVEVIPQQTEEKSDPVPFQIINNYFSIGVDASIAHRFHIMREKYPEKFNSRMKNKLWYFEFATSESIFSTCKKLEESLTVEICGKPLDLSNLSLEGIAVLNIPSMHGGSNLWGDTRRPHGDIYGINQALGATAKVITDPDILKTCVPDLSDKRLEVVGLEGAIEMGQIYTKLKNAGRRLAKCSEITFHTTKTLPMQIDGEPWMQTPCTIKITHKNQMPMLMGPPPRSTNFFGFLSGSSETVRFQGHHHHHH

As for `CC[C@H]1CN(C(c2ccc(Cl)cc2)c2ccc(F)cn2)[C@H](C)CN1c1cc(=O)n(C)c2ccc(C#N)nc12` (single isomer, unassigned) [Example 1129], the IC50 in experiment [1] (liposome (LIPGLO) assay) turned out to be 0.11 µM; in experiment [2] (liposome (LIPGLO) assay), 1.8 µM. Besides, the concentration giving a half-maximal response (EC50) in experiment [3] (setting [4]) was 0.41 µM.
For `C[C@@H]1CN(c2c(C#N)c(=O)n(C)c3ccc(C#N)nc23)CCN1Cc1cccc(C(F)(F)F)n1` [Example 991], the half-maximal inhibitory concentration (IC50) worked out at 0.31 µM in experiment [1] (DGKα liposome (LIPGLO) assay) and 0.8 µM in experiment [2] (DGKζ liposome (LIPGLO) assay). In addition, the 50% effective concentration (EC50) in experiment [3] (setting [5]) turned out to be 11 µM.
As for `C[C@@H]1CN(c2cc(=O)n(C)c3ccc(C#N)nc23)[C@@H](C)CN1Cc1noc2ccccc12` [Example 1433], the half-inhibitory concentration (IC50) in experiment [1] (liposome (LIPGLO) assay) was 2.5 µM; in experiment [2] (liposome (LIPGLO) assay), 2.8 µM. For the same compound, the concentration for a half-maximal effect (EC50) in experiment [3] (setting [4]) was 13 µM.
On the same counts, the results for `CC[C@H]1CN(C(c2ccc(F)cc2)c2ccc(C#N)cc2)[C@H](COC)CN1c1cc(=O)n(C)c2ccc(C#N)nc12` (single isomer, unassigned) [Example 1170] are 0.76 µM, 0.17 µM and 0.23 µM.
On the same counts, the results for `CC(c1ccc(P(C)(C)=O)cc1)N1C[C@H](C)N(c2cc(=O)n(C)c3ccc(C#N)nc23)C[C@H]1C` (stereo partly drawn) [Example 1290] are 170 µM, 43 µM and 20 µM.
On the same counts, the results for `CC(c1ccc2c(c1)OCCO2)N1C[C@H](C)N(c2cc(=O)n(C)c3ccc(C#N)nc23)C[C@H]1C` (single isomer, unassigned) [Example 1258] are 2.2 µM, 0.015 µM and 2.6 µM.
`C[C@@H]1CN(c2cc(=O)n(C)c3ccc(C#N)nc23)[C@@H](C)CN1C(c1ccc(F)cc1)c1nc(N2CCOCC2)no1` (stereo partly drawn) [Example 749]: the IC50 in experiment [1] (DGKα liposome (LIPGLO) assay) came to 0.67 µM; in experiment [2] (DGKζ liposome (LIPGLO) assay), 0.58 µM. In addition, the EC50 in experiment [3] (setting [6]) amounted to 1.2 µM.
As to `C[C@@H]1CN(c2cc(=O)n(C)c3ccc(C#N)nc23)[C@@H](C)CN1C(COC(F)F)c1ccc(F)cc1` (single isomer, unassigned) [Example 1189], the values for the concentration for half-maximal inhibition (IC50) in experiment [1] (liposome (LIPGLO) assay) and in experiment [2] (liposome (LIPGLO) assay) were 0.81 µM and 2.6 µM, respectively. In addition, the concentration giving a half-maximal response (EC50) in experiment [3] (setting [4]) is 1.2 µM.
For the compound `CC(C)c1nnc(C(c2ccc(F)cc2)N2C[C@H](C)N(c3cc(=O)n(C)c4ccc(C#N)nc34)C[C@H]2C)s1` (single isomer, unassigned) [Example 773], the values for the IC50 in experiment [1] (DGKα liposome (LIPGLO) assay) and in experiment [2] (DGKζ liposome (LIPGLO) assay) were 0.76 µM and 0.7 µM, respectively. Also, in experiment [3] (setting [6]), the concentration for a half-maximal effect (EC50) amounted to 7.9 µM.
With `C[C@@H]1CN(c2cc(=O)n(C)c3ccc(C#N)nc23)[C@@H](C)CN1C(c1ccc(F)cc1)c1ccc(C(F)(F)F)cn1` (single isomer, unassigned) [Example 680], the results for the IC50 in experiment [1] (liposome (LIPGLO) assay) and in experiment [2] (liposome (LIPGLO) assay) were 1.2 µM and 2.5 µM, respectively. Besides, the concentration for a half-maximal effect (EC50) in experiment [3] (setting [4]) stood at 0.48 µM.
Take `Cc1nccc(C(c2ccc(F)cc2)N2C[C@H](C)N(c3cc(=O)n(C)c4ccc(C#N)nc34)C[C@H]2C)n1` (single isomer, unassigned) [Example 401]: the figures for the IC50 in experiment [1] (liposome (LIPGLO) assay) and in experiment [2] (liposome (LIPGLO) assay) were 7.8 µM and 4.5 µM, respectively. Further, the half-maximal effective concentration (EC50) in experiment [3] (setting [7]) was found to be 0.93 µM.
In the case of `Cc1ccc(C(c2ccc(C#N)cc2)N2C[C@H](C)N(c3c(F)c(=O)n(C)c4ccc(C#N)nc34)C[C@H]2C)cc1` (stereo partly drawn) [Example 322, 8-((2S,5R)-4-((4-cyanophenyl)(p-tolyl)methyl)-2,5-dimethylpiperazin-1-yl)-7-fluoro-5-methyl-6-oxo-5,6-dihydro-1,5-naphthyridine-2-carbonitrile], the figures for the IC50 in experiment [1] (liposome (LIPGLO) assay) and in experiment [2] (liposome (LIPGLO) assay) were 2.7 µM and 2.2 µM, respectively. The EC50 in experiment [3] (setting [4]) is 2.2 µM.
As for `Cc1ccc(C(c2cccc3c2OCCCO3)N2C[C@H](C)N(c3cc(=O)n(C)c4ccc(C#N)nc34)C[C@H]2C)nc1` (single isomer, unassigned) [Example 451], the results for the 50% inhibitory concentration (IC50) in experiment [1] (liposome (LIPGLO) assay) and in experiment [2] (liposome (LIPGLO) assay) were 24 µM and 0.53 µM, respectively. Besides, the EC50 in experiment [3] (setting [7]) came to 7.6 µM.
For `CC[C@H]1CN(C(c2ccc(F)cc2)c2cccc(C(F)(F)F)n2)[C@H](C)CN1c1cc(=O)n(C)c2ccc(C#N)nc12` (single isomer, unassigned) [Example 1133], the IC50 turned out to be 1.6 µM in experiment [1] (liposome (LIPGLO) assay) and 0.13 µM in experiment [2] (liposome (LIPGLO) assay). The half-maximal effective concentration (EC50) in experiment [3] (setting [4]) came out at 0.57 µM.
For `C[C@@H]1CN(c2cc(=O)n(C)c3ccc(C#N)nc23)[C@@H](C)CN1C(Cc1nc(C2CC2)no1)c1ccc(F)cc1` (single isomer, unassigned) [Example 1326], the half-maximal inhibitory concentration (IC50) in experiment [1] (liposome (LIPGLO) assay) was found to be 1.2 µM; in experiment [2] (liposome (LIPGLO) assay), 0.47 µM. The 50% effective concentration (EC50) in experiment [3] (setting [7]) amounted to 1.7 µM.
Turning to `CC[C@@H]1CN(c2cc(=O)n(C)c3ccc(C#N)nc23)[C@@H](C)CN1C(c1ccc(F)cc1)c1cccc(C(F)(F)F)n1` (stereo partly drawn) [Example 1112], the IC50 in experiment [1] (liposome (LIPGLO) assay) was 1.2 µM; in experiment [2] (liposome (LIPGLO) assay), 0.15 µM. Besides, in experiment [3] (setting [7]), the EC50 turned out to be 0.17 µM.
For `C[C@@H]1CN(c2cc(=O)n(C)c3ccc(C#N)nc23)[C@@H](C)CN1C(c1ccc(F)cc1)C(F)(F)CO` (single isomer, unassigned) [Example 1310], the figures for the 50% inhibitory concentration (IC50) in experiment [1] (liposome (LIPGLO) assay) and in experiment [2] (liposome (LIPGLO) assay) were 6.2 µM and 7.5 µM, respectively. Further, the concentration for a half-maximal effect (EC50) in experiment [3] (setting [4]) was found to be 3.6 µM.
Take `C[C@@H]1CN(c2cc(=O)n(C)c3ccc(C#N)nc23)[C@@H](C)CN1C(c1c(F)cc(O)cc1F)C(F)(F)F` (single isomer, unassigned) [Example 628]: the IC50 was determined as 5.9 µM in experiment [1] (liposome (LIPGLO) assay) and 7.4 µM in experiment [2] (liposome (LIPGLO) assay). Besides, in experiment [3] (setting [7]), the concentration giving a half-maximal response (EC50) turned out to be 4.8 µM.
As to `C[C@@H]1CN(c2c(C#N)c(=O)n(C)c3ccc(C#N)nc23)CCN1C(c1ccc(F)cc1)c1nc(C2CC2)no1` (single isomer, unassigned) [Example 1030], the values for the IC50 in experiment [1] (liposome (LIPGLO) assay) and in experiment [2] (liposome (LIPGLO) assay) were 2.2 µM and 1.1 µM, respectively. The EC50 in experiment [3] (setting [7]) came out at 0.67 µM.
For `C[C@@H]1CN(c2cc(=O)n(C)c3ccc(C#N)nc23)[C@@H](C)CN1C(c1ccc(F)cn1)c1ccc(F)cc1F` (single isomer, unassigned) [Example 684], the IC50 in experiment [1] (liposome (LIPGLO) assay) stood at 0.0069 µM; in experiment [2] (liposome (LIPGLO) assay), 0.49 µM. The EC50 in experiment [3] (setting [7]) was 0.35 µM.
With `C[C@@H]1CN(c2c(C#N)c(=O)n(C)c3ccc(C#N)nc23)[C@@H](C)CN1C(c1ccc(F)cc1)c1ccc(F)cn1` (stereo partly drawn) [Example 827], the IC50 is 4.4 µM in experiment [1] (DGKα liposome (LIPGLO) assay) and 10 µM in experiment [2] (DGKζ liposome (LIPGLO) assay). Moreover, in experiment [3] (setting [6]), the concentration for a half-maximal effect (EC50) turned out to be 1.3 µM.
As for `Cc1ccc(C(c2cccc3c2OCCCO3)N2C[C@H](C)N(c3cc(=O)n(C)c4ccc(C#N)nc34)C[C@H]2C)nc1` (single isomer, unassigned) [Example 469], the figures for the IC50 in experiment [1] (liposome (LIPGLO) assay) and in experiment [2] (liposome (LIPGLO) assay) were 1.7 µM and 0.51 µM, respectively. Besides, the concentration giving a half-maximal response (EC50) in experiment [3] (setting [7]) is 3.2 µM.
On the same counts, the results for `CC(c1cc(C2CC2)on1)N1C[C@H](C)N(c2cc(=O)n(C)c3ccc(C#N)nc23)C[C@H]1C` (single isomer, unassigned) [Example 1281] are 0.49 µM, 1.1 µM and 1.6 µM.
Consider `Cc1ccc(C(c2cccc(F)c2)N2CCN(c3c(C#N)c(=O)n(C)c4ccc(C#N)nc34)C[C@H]2C)nc1` (single isomer, unassigned) [Example 923], for which the IC50 in experiment [1] (DGKα liposome (LIPGLO) assay) is 5.5 µM; in experiment [2] (DGKζ liposome (LIPGLO) assay), 1.9 µM. Besides, the concentration giving a half-maximal response (EC50) in experiment [3] (setting [5]) was found to be 0.8 µM.
With `C[C@@H]1CN(c2cc(=O)n(C)c3ccc(C#N)nc23)[C@@H](C)CN1C(c1ccc(F)cc1)c1nc(C2CN(C(=O)OC(C)(C)C)C2)no1` (single isomer, unassigned) [Example 757], the results for the IC50 in experiment [1] (DGKα liposome (LIPGLO) assay) and in experiment [2] (DGKζ liposome (LIPGLO) assay) were 0.023 µM and 0.16 µM, respectively. The concentration for a half-maximal effect (EC50) in experiment [3] (setting [6]) came out at 1 µM.
